Data on 42 compounds can be found in patent US12215116B2, “Arginase inhibitors and methods of use” (Merck Sharp & Dohme LLC, priority 2018, dated 2025).

For orientation: IC50 means the concentration that inhibits the measured activity by half. A low value points to inhibition by little substance.

Structures are written as SMILES. Structures can show the parent of a compound that is named as a salt.

This assay has as its target T1, Arginase (ARG1 enzyme) (Homo sapiens, UniProt P05089).
T1 construct: made in house; host or cells: Escherichia coli
T1 sequence (P05089 1-322): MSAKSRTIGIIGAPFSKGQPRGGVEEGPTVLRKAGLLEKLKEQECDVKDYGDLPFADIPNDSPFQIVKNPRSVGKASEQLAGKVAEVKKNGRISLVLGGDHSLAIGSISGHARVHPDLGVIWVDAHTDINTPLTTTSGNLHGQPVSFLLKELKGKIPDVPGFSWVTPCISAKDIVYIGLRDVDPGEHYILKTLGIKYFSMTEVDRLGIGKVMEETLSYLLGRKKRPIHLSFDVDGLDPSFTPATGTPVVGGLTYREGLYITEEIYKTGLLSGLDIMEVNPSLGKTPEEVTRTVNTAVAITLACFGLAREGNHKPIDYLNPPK
Briefly: Arginase Thioornithine Generating Assay (TOGA). Type of assay: biochemical. As to conditions: 1.88 nM arginase, thioarginine substrate, fluorescence readout. Here is the method: Arginase Thioornithine Generating Assay (TOGA)
Compounds were serially diluted in ten 3-fold steps in DMSO starting from 10 mM DMSO stocks. Compound dilutions or DMSO alone were then dispensed from the dilution plate into a Greiner black 384-well assay plate (catalog #781086) using an Echo 555 acoustic liquid handler (Labcyte).
Arginase protein was recombinantly expressed in Escherichia coli. Purified protein was then diluted in assay buffer (50 mM Tris pH 7.5, 50 mM NaCl, 1 mM manganese chloride, 0.05% bovine serum albumin to obtain a final Arginase concentration of 1.88 nM. Arginase solution (20 μL) or buffer alone (20 μL) were dispensed to wells of the assay plate using a BioRAPTR liquid dispenser (Beckman Coulter). Assay plates containing compound and ARG1 enzyme were incubated at room temperature for 30 minutes. Afterwards, 5 μL of 2.5 mM thioarginine (Cayman Chemicals) in assay buffer were added to each well of the assay plate using a BioRAPTR liquid dispenser. Plates were incubated at room temperature for 60 minutes and reactions were quenched by addition of 15 μL of […] 7-Diethylamine-3-(4-maleimidophenyl)-4-methylcoumarin (Sigma Chemical) in 70% ethanol. Plates were briefly shaken to mix and the fluorescence was measured in an Spectramax plate reader (Molecular Devices) with a 410 nm excitation wavelength and an 490 nm emission wavelength.
Potencies were calculated by […] to the four parameter logistic IC50 equation.
`O=C(O)[C@H]1NC[C@H](NCC(F)F)[C@H]1CCCB(O)O` [Example 27, (2S,3R,4R)-3-(3-boronopropyl)-4-((2,2-difluoroethyl)amino)pyrrolidine-2-carboxylic acid]: the midpoint of inhibition, the IC50, lay at 128 nM.

With `CC1(C)N[C@H](C(=O)O)[C@](C)(CCCB(O)O)[C@@H]1O` [Example 75], the half-inhibitory concentration (IC50) is above 10000 nM.

Turning to `C[C@@]1(CCCB(O)O)[C@@H](CO)CN[C@@H]1C(=O)O` [Example 80, (2S,3R,4R)-3-(3-boronopropyl)-4-(hydroxymethyl)-3-methylpyrrolidine-2-carboxylic acid], inhibition was half-maximal at 27.3 nM (IC50).

`O=C(O)[C@@H]1NCCC[C@H]1CCCB(O)O` [Example 1C, (2R,3R)-3-[3-(dihydroxyborany)propy]piperidinyl-2-carboxylic acid]: inhibition was half-maximal at 83300 nM (IC50).

The compound `CO[C@H]1CN[C@H](C(=O)O)[C@@H]1CCCB(O)O` [Example 36, (2S,3S,4R)-3-(3-boronopropyl)-4-methoxypyrrolidine-2-carboxylic acid] had an IC50 of 46.1 nM.

`O=C(O)[C@H]1NCC[C@H]1SCCB(O)O` [Example 93, (2R,3R)-3-((2-boronoethyl)thio)pyrrolidine-2-carboxylic acid hydrochloride] gave an IC50 of 92.1 nM.

Turning to `O=C(O)[C@H]1NCC[C@]1(CCCB(O)O)C(F)F` [Example 84, (2S,3S)-3-(3-boronopropyl)-3-(difluoromethyl)pyrrolidine-2-carboxylic acid], it took 28.9 nM to reach half-maximal inhibition (IC50).

Compound `NC[C@H]1C[C@H](CCCB(O)O)[C@H](C(=O)O)N1` [Example 60B, (2R,3S,5R)-5-(aminomethyl)-3-(3-boronopropyl)pyrrolidine-2-carboxylic acid] displayed an IC50 of 1780 nM.

Turning to `C[C@H](N)C(=O)N[C@H]1CN[C@H](C(=O)O)[C@@H]1CCCB(O)O` [Example 41, (2S,3R,4R)-4-((S)-2-aminopropanamido)-3-(3-boronopropyl)pyrrolidine-2-carboxylic acid], the half-inhibitory concentration (IC50) amounted to 13.6 nM.

For `C[C@@H]1C[C@@H](CCCB(O)O)[C@@H](C(=O)O)N1` [Example 64, (2S,3R,5R)-3-(3-boronopropyl)-5-methylpyrrolidine-2-carboxylic acid], the IC50 was found to be 6.62 nM.

Turning to `O=C(O)[C@H]1NC[C@@H](O)[C@H]1CCCB(O)O` [Example 20B, (3S,4S) 3-[3-(dihydroxyboranyl)propyl]-4-hydroxy-L-proline], the IC50 is above 10000 nM.

The compound `O=C(O)C1NCCCC1CCCB(O)O` (stereo not drawn) [Example 1, 3-[3-(dihydroxyboranyl)propyl]piperidinyl-2-carboxylic acid] returned an IC50 of 660 nM.

The compound `O=C(O)[C@H]1NCCC[C@H]1CCCB(O)O` (single isomer, unassigned) [Example 1B] registered an IC50 of 377 nM.

Consider `CNC[C@@H]1C[C@@H](CCCB(O)O)[C@@H](C(=O)O)N1` [Example 62, (2S,3R,5S)-3-(3-boronopropyl)-5-((methylamino)methyl)pyrrolidine-2-carboxylic acid], for which the IC50 is 34.9 nM.

With `O=C(O)C1CNCC1CCCB(O)O` (single isomer, unassigned) [Example 21A, 4-[3-(dihydroxyboranyl)propyl]pyrrolidine-3-carboxylic acid], the IC50 is above 10000 nM.

In turn, `C[C@@]1(C(=O)O)NCC[C@H]1CCCB(O)O` [Example 16C, (3R)-3-[3-(dihydroxyboranyl)propyl]-2-methyl-D-proline] had a concentration for half-maximal inhibition (IC50) of 1450 nM.

Compound `NC1(C(=O)O)CNCC1(CO)CCCB(O)O` (single isomer, unassigned) [Example 94B] had an IC50 of 940 nM.

In the case of `CC(C)[C@H](N)C(=O)N[C@H]1CN[C@H](C(=O)O)[C@@H]1CCCB(O)O` [Example 37, (2S,3R,4R)-4-((S)-2-amino-3-methylbutanamido)-3-(3-boronopropyl)pyrrolidine-2-carboxylic acid], the half-inhibitory concentration (IC50) worked out at 2.09 nM.

As for `C[C@]1(C(=O)O)NCC[C@H]1CCCB(O)O` [Example 16A, (3R)-3-[3-(dihydroxyboranyl)propyl]-2-methyl-L-proline], inhibition was half-maximal at 70 nM (IC50).

As for `O=C(O)[C@H]1NCC[C@H]1CCCB(O)O` (single isomer, unassigned) [Example 9A], the IC50 stood at 18 nM.

Regarding `O=C(O)C1CNCC1CCCB(O)O` (single isomer, unassigned) [Example 21D, 4-[3-(dihydroxyboranyl)propyl]pyrrolidine-3-carboxylic acid], the 50% inhibitory concentration (IC50) is 1520 nM.

Take `O=C(O)C1(CCN2CCCCC2)CC(CCB(O)O)CCN1` (stereo not drawn) [Example 5, 4-[2-(dihydroxyboranyl)ethyl]-2-[2-(piperidin-1-yl)ethyl]piperidinyl-2-carboxylic acid]: it took 1330 nM to reach half-maximal inhibition (IC50).

As to `O=C(O)[C@H]1NCC[C@@H]1CCCB(O)O` [Example 15B, (3S)-3-[3-(dihydroxyboranyl)propyl]-L-proline], the IC50 was 413 nM.

As to `CN1C[C@@](CO)(CCCB(O)O)[C@H]1C(=O)O` [Example 66, (2S,3S)-3-(3-boronopropyl)-3-(hydroxymethyl)-1-methylazetidine-2-carboxylic acid], the half-inhibitory concentration (IC50) is 269 nM.

On to `N[C@]1(C(=O)O)CNC[C@]1(CO)CCCB(O)O` [Example 94D], for which the concentration for half-maximal inhibition (IC50) is above 10000 nM.

`O=C(O)[C@H]1NC[C@@H]1CCCB(O)O` [Example 8A, (2S,3S)-3-[3-(dihydroxyboranyl)propyl]azetidine-2-carboxylic acid] came in with an IC50 of 340 nM.

In turn, `NC[C@]1(C(=O)O)NCC[C@H]1CCCB(O)O` (single isomer, unassigned) [Example 57B] had an IC50 of 5710 nM.

On to `NCC1(C(=O)O)CCC(CCB(O)O)C1` (mixture of isomers) [Example 95, 1-(aminomethyl)-3-(2-boronoethyl)cyclopentane-1-carboxylic acid], for which the IC50 was above 10000 nM.

On to `NC[C@@H]1C[C@@H](CCCB(O)O)[C@@H](C(=O)O)N1` [Example 60A, (2S,3R,5S)-5-(aminomethyl)-3-(3-boronopropyl)pyrrolidine-2-carboxylic acid], for which the IC50 was found to be 29.5 nM.

As for `CN(C)CC[C@]1(C(=O)O)NCC[C@H]1CCCB(O)O` [Example 54, (2S,3R)-3-(3-boronopropyl)-2-(2-(dimethylamino)ethyl)pyrrolidine-2-carboxylic acid], the IC50 was 31.5 nM.

On to `C[C@@]1(CCCB(O)O)[C@H](O)CN[C@@H]1C(=O)O` [Example 69, (2S,3S,4S)-3-(3-boronopropyl)-4-hydroxy-3-methylpyrrolidine-2-carboxylic acid], for which the IC50 is above 10000 nM.

Compound `O=C(O)C1NCCCC1OCCB(O)O` (stereo not drawn) [Example 3, 3-[2-(dihydroxyboranyl)ethoxy]piperidinyl-2-carboxylic acid] gave a half-inhibitory concentration (IC50) above 10000 nM.

`O=C(O)C1NCCNC1CCCB(O)O` (stereo not drawn) [Example 7, 3-[3-(dihydroxyboranyl)propyl]piperazine-2-carboxylic acid] came in with a 50% inhibitory concentration (IC50) of 99000 nM.

As for `O=C(O)[C@H]1NC[C@H]1CCCB(O)O` [Example 8B, (2S,3R)-3-[3-(dihydroxyboranyl)propyl]azetidine-2-carboxylic acid], the IC50 was 447 nM.

As to `CC(C)[C@H](N)C(=O)N[C@H]1CN[C@H](C(=O)O)[C@]1(C)CCCB(O)O` [Example 70, (2S,3R,4R)-4-((S)-2-amino-3-methylbutanamido)-3-(3-boronopropyl)-3-methylpyrrolidine-2-carboxylic acid], the half-maximal inhibitory concentration (IC50) amounted to 83 nM.

Take `NCC1CN[C@H](C(=O)O)C1CCCB(O)O` (stereo partly drawn) [Example 34, (2S)-4-(aminomethyl)-3-(3-boronopropyl)pyrrolidine-2-carboxylic acid]: the midpoint of inhibition, the IC50, lay at 3450 nM.

Regarding `C[C@]1(CCCB(O)O)[C@@H](C(=O)O)NC[C@@H]1O` [Example 76, (2S,3S,4R)-3-(3-boronopropyl)-4-hydroxy-3-methylpyrrolidine-2-carboxylic acid], the IC50 worked out at 17.7 nM.

Compound `NCCN[C@H]1CN[C@H](C(=O)O)[C@@H]1CCCB(O)O` [Example 31, (2S,3R,4R)-4-((2-aminoethyl)amino)-3-(3-boronopropyl)pyrrolidine-2-carboxylic acid] registered an IC50 of 6.69 nM.

For the compound `O=C(O)C1CNCCC1CCCB(O)O` (stereo not drawn) [Example 6, 4-[3-(dihydroxyboranyl)propyl]piperidinyl-3-carboxylic acid], the IC50 was 57500 nM.

Regarding `CC[C@H](C)[C@H](N)C(=O)N[C@H]1CN[C@H](C(=O)O)[C@@H]1CCCB(O)O` [Example 45, (2S,3R,4R)-4-((2S,3S)-2-amino-3-methylpentanamido)-3-(3-boronopropyl)pyrrolidine-2-carboxylic acid], the IC50 came out at 2 nM.

`NC1CN[C@H](C(=O)O)C1CCCB(O)O` (single isomer, unassigned) [Example 33B] displayed an IC50 above 10000 nM.

Compound `CNC[C@H]1CN[C@H](C(=O)O)[C@]1(C)CCCB(O)O` [Example 79] showed an IC50 of 66.3 nM.
